Reference: ChEMBL document CHEMBL1201862, “PubChem BioAssay data set” (2004)
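Compound exposure: 48 hours, 5 concentrations, 96-well plates. Here, GI50 denotes the concentration required for 50% inhibition of growth.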 Activity calls are given as the source filed them. No stated cut-off is given here; in the data, active = GI50 up to about 1.1 µM and inactive = higher.

Key:
Experiment in all cases: NCI-60 cell line screen, 48 h
[1] = system: RPMI-8226
[2] = system: U-251
[3] = system: SF-268
[4] = system: UO-31
[5] = system: Malme-3M
[6] = system: HT-29
[7] = system: NCI/ADR-RES
[8] = system: K562
[9] = system: BT-549
[10] = system: HCT-15
[11] = system: DU-145
[12] = system: LOX IMVI
[13] = system: NCI-H226
[14] = system: HOP-62
[15] = system: SK-MEL-28
[16] = system: ACHN
[17] = system: IGROV-1
[18] = system: HCT-116
[19] = system: HCC 2998

Compound	GI50 [1]	GI50 [2]	GI50 [3]	GI50 [4]	GI50 [5]	GI50 [6]	GI50 [7]	GI50 [8]	GI50 [9]	GI50 [10] [µM]	GI50 [11]	GI50 [12]	GI50 [13]	GI50 [14]	GI50 [15]	GI50 [16]	GI50 [17]	GI50 [18]	GI50 [19]
COc1ccc(C2c3cc4c(cc3OC(NNC(N)=O)C2C)OCO4)cc1 (centres undefined)	3.3 µM (inactive)	4.95 µM (inactive)	11.2 µM (inactive)	10.6 µM (inactive)	6.67 µM (inactive)	3.3 µM (inactive)	7.5 µM (inactive)	2.86 µM (inactive)	7.16 µM (inactive)	3.94	22.3 µM (inactive)	4.39 µM (inactive)	14.9 µM (inactive)	6.28 µM (inactive)	7.23 µM (inactive)	8.75 µM (inactive)	6.59 µM (inactive)	4.7 µM (inactive)	8.51 µM (inactive)
CCOC(=O)CC[C@H](N)C(=O)N[C@H](Cc1ccc(N(CCCl)CCCl)cc1)C(=O)OCC	7.06 µM (inactive)	6.47 µM (inactive)	0.414 µM (active)	0.419 µM (active)	4.94 µM (inactive)	3.92 µM (inactive)	4.26 µM (inactive)	> 34.4 µM (inactive)	9.25 µM (inactive)	4.39	0.348 µM (active)	4.61 µM (inactive)	7.76 µM (inactive)	2.26 µM (inactive)	25.8 µM (inactive)	0.0706 µM (active)	2.71 µM (inactive)	5.78 µM (inactive)	1.2 µM (inactive)
CCOC(=O)C1(Cc2ccccc2)C=CN(C(=O)c2ccccc2)C=C1	18 µM (inactive)	29.2 µM (inactive)	47.4 µM (inactive)	45.8 µM (inactive)	26.6 µM (inactive)	34.2 µM (inactive)	36.6 µM (inactive)	27 µM (inactive)	33.8 µM (inactive)	32.1	57.3 µM (inactive)	34.4 µM (inactive)	> 100 µM (inactive)	45.9 µM (inactive)	30.8 µM (inactive)	34.1 µM (inactive)	61.5 µM (inactive)	29.8 µM (inactive)	63.4 µM (inactive)
CCCCCOC(=O)C(=O)Nc1[nH]nnc1C(N)=O	> 100 µM (inactive)	> 100 µM (inactive)	> 100 µM (inactive)	> 100 µM (inactive)	> 100 µM (inactive)	> 100 µM (inactive)	> 100 µM (inactive)	> 100 µM (inactive)	> 100 µM (inactive)	> 100	> 100 µM (inactive)	> 100 µM (inactive)	> 100 µM (inactive)	> 100 µM (inactive)	> 100 µM (inactive)	> 100 µM (inactive)	> 100 µM (inactive)	> 100 µM (inactive)	> 100 µM (inactive)
CCC1(CCSC(=N)N)C(=O)NC(=O)NC1=O	> 100 µM (inactive)	> 100 µM (inactive)	> 100 µM (inactive)	> 100 µM (inactive)	> 100 µM (inactive)	> 100 µM (inactive)	> 100 µM (inactive)	> 100 µM (inactive)	> 100 µM (inactive)	> 100	> 100 µM (inactive)	> 100 µM (inactive)	> 100 µM (inactive)	> 100 µM (inactive)	> 100 µM (inactive)	> 100 µM (inactive)	> 100 µM (inactive)	> 100 µM (inactive)	> 100 µM (inactive)
O=S(=O)(CCCCl)SCCCCl	21.9 µM (inactive)	45.9 µM (inactive)	26.7 µM (inactive)	65.5 µM (inactive)	33.6 µM (inactive)	25.9 µM (inactive)	31.9 µM (inactive)	7.5 µM (inactive)	11.2 µM (inactive)	23.3	63.8 µM (inactive)	19.2 µM (inactive)	> 65.5 µM (inactive)	> 87.5 µM (inactive)	39.3 µM (inactive)	55.7 µM (inactive)	37.5 µM (inactive)	20.9 µM (inactive)	> 100 µM (inactive)
CC(C)(C)C(=O)CC1=Nc2ccccc2SC1(O)CC(=O)C(C)(C)C (centres undefined)	8.67 µM (inactive)	22.2 µM (inactive)	25.8 µM (inactive)	12.3 µM (inactive)	33.3 µM (inactive)	17.1 µM (inactive)	21.9 µM (inactive)	21.5 µM (inactive)	15.7 µM (inactive)	15.3	25.1 µM (inactive)	17.1 µM (inactive)	15.2 µM (inactive)	26.3 µM (inactive)	22.8 µM (inactive)	23.2 µM (inactive)	16 µM (inactive)	24 µM (inactive)	14.8 µM (inactive)
COc1cccc(N2C(=O)C3c4[nH]c5ccccc5c4C4c5ccccc5CCC4C3C2=O)c1 (centres undefined)	> 10 µM (inactive)	3.82 µM (inactive)	4.16 µM (inactive)	4.27 µM (inactive)	3.75 µM (inactive)	9.93 µM (inactive)	4.76 µM (inactive)	> 10 µM (inactive)	4.91 µM (inactive)	> 10	> 10 µM (inactive)	> 10 µM (inactive)	> 4.37 µM (inactive)	2.4 µM (inactive)	> 9.55 µM (inactive)	> 10 µM (inactive)	> 7.98 µM (inactive)	4.34 µM (inactive)	> 10 µM (inactive)
Cc1cc2c(cc1Cl)SC(NNC1=NCCN1)=NS2(=O)=O	> 10 µM (inactive)	> 10 µM (inactive)	> 10 µM (inactive)	> 10 µM (inactive)	> 10 µM (inactive)	> 10 µM (inactive)	> 10 µM (inactive)	> 10 µM (inactive)	> 10 µM (inactive)	> 10	> 10 µM (inactive)	> 10 µM (inactive)	> 10 µM (inactive)	> 10 µM (inactive)	> 10 µM (inactive)	> 10 µM (inactive)	> 10 µM (inactive)	> 10 µM (inactive)	> 10 µM (inactive)
Cc1cc(/N=N/c2c(O)ccc3ccccc23)ccc1/N=N/c1cccc([N+](C)(C)C)c1	4.22 µM (inactive)	1.58 µM (inactive)	10.7 µM (inactive)	15.7 µM (inactive)	9.64 µM (inactive)	3.66 µM (inactive)	74.1 µM (inactive)	13.2 µM (inactive)	3.08 µM (inactive)	31	19.6 µM (inactive)	4.56 µM (inactive)	6.41 µM (inactive)	11.4 µM (inactive)	16 µM (inactive)	23.8 µM (inactive)	2.87 µM (inactive)	9.82 µM (inactive)	21.1 µM (inactive)
CCC1=NC(N/N=C/c2ccco2)=N/C1=C\c1ccco1	40.9 µM (inactive)	> 100 µM (inactive)	> 100 µM (inactive)	> 100 µM (inactive)	> 100 µM (inactive)	> 100 µM (inactive)	> 100 µM (inactive)	62.1 µM (inactive)	> 100 µM (inactive)	> 100	> 100 µM (inactive)	> 100 µM (inactive)	> 100 µM (inactive)	> 100 µM (inactive)	> 100 µM (inactive)	> 100 µM (inactive)	> 100 µM (inactive)	> 100 µM (inactive)	> 100 µM (inactive)
